This test addresses T1, Cyclin E/CDK2 (Homo sapiens, UniProt P24941).
T1 construct: The expressed protein was approximately 34 kDa in size; made in house; host or cells: SF9 insect cells (baculovirus co-infection)
Nature of the test: Cyclin E/CDK2 in vitro kinase assay (SPA, 33P-ATP, biotinylated Histone H1 peptide). The format is biochemical. Particulars: recombinant cyclin E/CDK2 from SF9 cells; 8 point serial dilutions in duplicate; 1 hour at room temperature.

In general, IC50 refers to the point on the concentration scale where inhibition reaches its midpoint. On to `Clc1cnn2c(NCc3cncnc3)cc(-c3ccccc3)cc12`, for which the IC50 was 78 nM.
